Experimental data published in patent publication US20090227556A1, “RECEPTOR TYROSINE KINASE INHIBITORS COMPRISING PYRIDINE AND PYRIMIDINE DERIVATIVES” (Eisai R&D Management Co., Ltd., priority 2008, published 2009).
pIC50: −log10 of the molar value.

These compounds were tested against T1, VEGFR-1 (FLT 1) (Homo sapiens, UniProt P17948) (assay: Tyrosine kinase inhibition, mobility shift assay (MSA)). Conditions: recombinant human kinase.
T1 construct: purchased Carna Biosciences Inc. 08-189
T1 sequence (P17948 27-1338): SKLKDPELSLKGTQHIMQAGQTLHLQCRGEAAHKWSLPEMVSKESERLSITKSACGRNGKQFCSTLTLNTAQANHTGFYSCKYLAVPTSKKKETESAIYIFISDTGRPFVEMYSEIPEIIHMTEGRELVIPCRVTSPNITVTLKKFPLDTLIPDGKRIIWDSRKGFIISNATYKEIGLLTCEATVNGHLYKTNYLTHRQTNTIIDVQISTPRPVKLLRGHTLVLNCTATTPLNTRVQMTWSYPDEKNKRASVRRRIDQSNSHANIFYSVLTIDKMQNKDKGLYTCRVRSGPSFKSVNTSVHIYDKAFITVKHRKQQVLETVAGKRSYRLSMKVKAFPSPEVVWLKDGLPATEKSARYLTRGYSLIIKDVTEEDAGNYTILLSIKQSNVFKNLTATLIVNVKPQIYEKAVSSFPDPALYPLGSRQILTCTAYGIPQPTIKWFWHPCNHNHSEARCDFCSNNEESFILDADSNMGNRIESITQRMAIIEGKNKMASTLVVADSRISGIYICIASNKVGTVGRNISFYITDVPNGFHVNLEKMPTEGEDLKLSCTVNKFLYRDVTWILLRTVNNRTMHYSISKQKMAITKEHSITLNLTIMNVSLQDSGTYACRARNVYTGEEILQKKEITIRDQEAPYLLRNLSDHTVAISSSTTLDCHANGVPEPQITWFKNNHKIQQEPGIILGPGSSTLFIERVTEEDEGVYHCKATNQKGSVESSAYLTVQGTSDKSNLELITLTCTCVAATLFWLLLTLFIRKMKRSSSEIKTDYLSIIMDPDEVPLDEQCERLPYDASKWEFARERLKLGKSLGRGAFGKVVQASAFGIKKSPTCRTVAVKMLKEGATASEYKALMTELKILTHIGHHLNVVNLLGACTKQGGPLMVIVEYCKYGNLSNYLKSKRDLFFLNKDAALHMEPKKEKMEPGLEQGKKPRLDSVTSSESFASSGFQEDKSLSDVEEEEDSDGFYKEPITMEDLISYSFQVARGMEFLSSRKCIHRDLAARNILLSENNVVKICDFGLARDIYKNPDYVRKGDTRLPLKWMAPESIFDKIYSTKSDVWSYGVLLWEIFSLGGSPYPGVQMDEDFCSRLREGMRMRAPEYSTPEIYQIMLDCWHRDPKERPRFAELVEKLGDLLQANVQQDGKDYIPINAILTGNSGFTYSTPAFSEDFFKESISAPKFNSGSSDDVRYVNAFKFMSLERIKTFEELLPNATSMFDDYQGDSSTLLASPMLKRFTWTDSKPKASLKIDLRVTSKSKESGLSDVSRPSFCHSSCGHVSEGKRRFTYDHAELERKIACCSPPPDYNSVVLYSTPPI
Type: biochemical
Description: A test compound was dissolved in dimethyl sulfoxide to make a 10 mM solution, which was stored in a dark place at 4° C. until use.
Protein tyrosine kinases (recombinant human kinases) used in the study were the following products from Carna Biosciences Inc. (Kobe, Japan).
VEGFR-1 (FLT 1) (product number: 08-189) VEGFR-3 (FLT 4) (product number: 08-190) RON (product number: 08-152) RET (product number: 08-159) KIT (product number: 08-156)
Kinase activity was measured in a mobility shift assay (MSA) method (J. Biomolecular Screening, 11, 359-368, 2006) using QuickScout Screening Assist™ (Carna Biosciences Inc., commercial kit), and enzyme-linked immunoassay (ELISA).
5 μl of the test substance solution obtained by dissolving or suspending in an assay buffer (20 mM Hepes, 0.01% Triton X-100, 1 mM dithiothreitol, pH 7.4) (4× final concentration) or 5 μl of a solvent (4% dimethyl sulfoxide-assay buffer) was dispensed into a polypropylene 384-well plate (Greiner Bio-One, product number 781280). Then, 5 μl of QuickScout Screening Assist™ MSA in an ATP/substrate/metal solution was added. Additionally, 10 μl of the kinase solution diluted with the assay buffer was added to initiate a reaction. For a blank, only 10 μl of the assay buffer was added. The kinase concentration and reaction conditions were in accordance with the protocol of QuickScout Screening Assist™ MSA. Then, the reaction was terminated by addition of 60 μl of a termination buffer of the QuickScout Screening Assist™ MSA, and the amount of a substrate (S) and a phosphorylated substrate (P) in the reaction solution were determined using LabChip3000 (Caliper Life Science, Massachusetts, U.S.A.) in accordance with the protocol of QuickScout Screening Assist™ MSA. The amounts of the S and P were represented by respective separated peak height. […] It was on the condition that the signal was determined as P/(P+S).
Work on `CN1CCN(C2CCN(C(=O)Nc3cc(Oc4cc(F)c(NC(=O)C5(C(=O)Nc6ccc(F)cc6)CC5)cc4F)ccn3)CC2)CC1` [N-(2,5-Difluoro-4-{[2-({[4-(4-methylpiperazin-1-yl)piperidin-1-yl]carbonyl}amino)pyridin-4-yl]oxy}phenyl)-N′-(4-fluorophenyl)cyclopropane-1,1-dicarboxamide] yielded a pIC50 of 7.68. `O=C(Nc1cc(Oc2cc(F)c(NC(=O)C3(C(=O)Nc4ccc(F)cc4)CC3)cc2F)ccn1)N1CC(O)C1` [N-{2,5-Difluoro-4-[(2-{[(3-hydroxyazetidin-1-yl)carbonyl]amino}pyridin-4-yl)oxy]phenyl}-N′-(4-fluorophenyl)cyclopropane-1,1-dicarboxamide] was tested, and the pIC50 was 7.59. `O=C(Nc1cc(Oc2cc(F)c(NC(=O)C3(C(=O)Nc4ccc(F)cc4)CC3)cc2F)ccn1)N1CC(CO)C1` [N-(2,5-Difluoro-4-{[2-({[3-(hydroxymethyl)azetidin-1-yl]carbonyl}amino)pyridin-4-yl]oxy}phenyl)-N′-(4-fluorophenyl)cyclopropane-1,1-dicarboxamide] was tested, and the pIC50 was 7.85. `O=C(Nc1cc(Oc2ccc(NC(=O)C3(C(=O)Nc4ccc(F)cc4)CC3)c(F)c2)ccn1)N1CCC1` [N-[4-({2-[(Azetidin-1-ylcarbonyl)amino]pyridin-4-yl}oxy)-2-fluorophenyl]-N′-(4-fluorophenyl)cyclopropane-1,1-dicarboxamide] was tested, and the pIC50 was 7.15. With `CN1CCC(N(C)C(=O)Nc2cc(Oc3cc(F)c(NC(=O)C4(C(=O)Nc5ccc(F)cc5)CC4)cc3F)ccn2)CC1` [N-(2,5-Difluoro-4-{[2-({[methyl(1-methylpiperidin-4-yl)amino]carbonyl}amino)pyridin-4-yl]oxy}phenyl)-N′-(4-fluorophenyl)cyclopropane-1,1-dicarboxamide] the pIC50 was 7.92.
